The values that follow come from PMC7392676 (BMC Microbiology, 2020).

Assay [1] relates to Xanthomonas axonopodis pv. vesicatoria. The note with it: cited from earlier work.
A further assay relates to Xff strain Temecula. Type of assay: cell-based, Xylella fastidiosa subsp. fastidiosa.
Assay [2] deals with Pseudomonas syringae pv. syringae. The conditions noted are these: cited from earlier work.
For another assay, the system named is Erwinia amylovora. The conditions noted are these: cited from earlier work.
The test system of the next assay is Xf. The conditions noted are these: cited from earlier work.

Bounds are passed on as bounds.

As for KDWEHLKDWEHLKDWEHL-OH [tag54], in assay [1], the “MIC Xav” value was > 100 µM. For the same substance, in the assay on Xff strain Temecula, the “Log N0/N (log reduction of Xff cell viability)” value stood at 0 ± 0 log and the “antimicrobial activity against Xff cells (in words)” value is “did not show antimicrobial activity”. Also, the “MIC Psa” value in assay [2] was > 100 µM. In addition, in the assay with Erwinia amylovora, the “MIC Ea” value is > 100 µM.

Take dermaseptin: in the assay with Xf, the “MIC or MBC against Xf” value is 8 to 32 µg/mL.

For the substance gomesin, in the assay with Xf, the “MIC or MBC against Xf” value is 4.5 to 9 µg/mL.

As to magainin II, in the assay with Xf, the “MIC or MBC against Xf” value was 8 to 64 µg/mL.
